Results as given in ChEMBL document CHEMBL1133946, “An approach to the identification of potent inhibitors of influenza virus fusion using parallel synthesis methodology” (Bioorg Med Chem Lett, 2001).
Converted amounts (≈) assume the structure as drawn.

How the values were obtained:
[1] = test system: unidentified influenza virus; assay: Cytotoxicity of compound was measured against Influenza virus;in range of 8-9; type: functional
[2] = test system: unidentified influenza virus; assay: Compound tested for inhibition of influenza virus infectivity in cell culture determined by plaque reduction assay;Inactive; type: functional, organism-based
[3] = Compound tested for inhibition of hemolysis; type: functional
[4] = test system: unidentified influenza virus; assay: Cytotoxicity of compound was measured against Influenza virus; type: functional
[5] = test system: unidentified influenza virus; assay: Compound tested for inhibition of influenza virus infectivity in cell culture determined by plaque reduction assay; type: functional, organism-based
[6] = unidentified influenza virus, read-out: CC50
[7] = unidentified influenza virus, read-out: EC50

Compound	CC50 [1]	EC50 [2]	IC50 [3]	CC50 [4, 6]	EC50 [5, 7]	CC50 [4]	EC50 [5]
CC1(C)C[C@H](O)C[C@](C)(C/N=C(\S)c2cccc(Cl)c2)C1	8 mg/L (≈ 24.5 µM)	Not Active	2.5 mg/L (≈ 7.67 µM)	–	–	–	–
Cc1ccc(O)c(C(=O)NC[C@]2(C)C[C@H](O)CC(C)(C)C2)c1	–	–	0.15 mg/L (≈ 0.491 µM)	50 mg/L (≈ 164 µM)	0.136 mg/L (≈ 0.445 µM)	–	–
CC1(C)C[C@H](O)C[C@@](C)(CNC(=S)c2cccc(Cl)c2)C1	–	–	0.047 mg/L (≈ 0.144 µM)	20 mg/L (≈ 61.4 µM)	0.02 mg/L (≈ 0.0614 µM)	–	–
Cc1ccc(O)c(C(=O)NC[C@@]2(C)C[C@H](O)CC(C)(C)C2)c1	–	–	0.033 mg/L (≈ 0.108 µM)	70 mg/L (≈ 229 µM)	0.037 mg/L (≈ 0.121 µM)	–	–
C[C@@H]1CCC[C@@H]2C[C@@H](NC(=O)c3cc(Cl)c(N)cc3O)CCN21	–	–	0.44 mg/L (≈ 1.3 µM)	> 100 mg/L	2 mg/L (≈ 5.92 µM)	–	–
CC1(C)C[C@H](O)C[C@@](C)(CNC(=O)c2cc(Cl)ccc2O)C1 (stereo in doubt; 10b)	–	–	0.25 mg/L (≈ 0.767 µM)	–	–	>100 mg/L	0.13 mg/L (≈ 0.399 µM)
CC1(C)C[C@H](O)C[C@@](C)(CNC(=O)c2cc(Cl)ccc2O)C1 (stereo in doubt; 11b)	–	–	0.025 mg/L (≈ 0.0767 µM)	80 mg/L (≈ 246 µM)	–	–	0.03 mg/L (≈ 0.0921 µM)
